# Source: publication PMC6642484, “Cell penetrating caspase substrates promote survival of the transplanted cells” (BMC Research Notes, 2019)
# Where a SMILES comes first, the peptide text is derived from it.
# Assays:
# Type in all cases: cell-based
# N1E cells [1] = assay: MALDI-TOF analysis of lysates from peptide-loaded cells; conditions: 500 nM peptide, 30 min at 37 °C, Triton X-100 lysate after trichloroacetic acid sedimentation, not quantitative
# Procedure: About 10^6 cells (N1E cells) were exposed to 500 nM of DL18 peptide in normal culture media for 30 min at 37 °C. After exposure the cells were washed twice with PBS, lyzed with 1% Triton X-100 in distilled water and the proteins were sedimented with equal volume of 40% trichloroacetic acid. After centrifugation (9000g, 20 min) 20 μl of supernatant was applied on MALDI plate, mixed with solution of 2,5-dihydroxybenzoic acid and subjected for MALDI-TOF analysis.
# N1E and R3 cells [2] = assay: Hydrogen peroxide induced apoptosis, LIVE/DEAD staining; conditions: H2O2 100 μM, 18 h, cells untreated with peptides; average ± SEM
# Procedure: (§1) N1E and R3 ([33-10ras3] (ATCC® CRL-2764™)) cells were grown to about 80% of confluency in 6-well plates covered with D-poly-lysine. Peptides (500 nM or 10 µM) were added to the cells 1 h before treatments. The tested apoptogenic treatments were: Staurosporine (100 nM, 18 h), serum withdraw (20 days for N1E cells and 5 days for R3 cells), heat shock (43 °C, 1 h plus overnight recovery), Camptothecin (10 μM, 18 h), H2O2 (100 μM, 18 h). After the treatment the cells were carefully washed with PBS and stained simultaneously with Calcein A and Ethidium homodimer-1 (LIVE/DEAD® Viability/Cytotoxicity Kit, LifeTechnologies) for 30 min at room temperature. Cells were photographed in an inverted microscope immediately after staining. Percentage of survived cells was calculated from 3 randomly selected fields of view; average cell death rate ± SEM was calculated using GraphPad Prism (version 6.0 h for MacOS, GraphPad Software, La Jolla, USA). Antibodies specific to cleaved Caspase-3 (Asp175) (Rabbit monoclonal 5A1E, CST) were used to visualize Caspase-3 activation in N1E cells by Western blotting.
# N1E and R3 cells [3] = assay: Camptothecin-induced apoptosis, LIVE/DEAD staining; conditions: Camptothecin 10 μM, 18 h, no peptide
# Procedure: as §1
# N1E cells [4] = assay: Staurosporine-induced cell death, LIVE/DEAD staining; conditions: overnight exposure to 100 nM Staurosporine, no peptide, average ± SEM
# Procedure: as §1
# R3 cells = assay: as above; conditions: Staurosporine 100 nM, no peptide, average ± SEM
# Procedure: as §1
smiles,measurement,setting,value
CC[C@@H](C)[C@@H](NC(=O)[C@@H](CCC(=O)O)NC(=O)[C@H](NC(=O)[C@@H](CC(=O)O)NC(=O)[C@@H](CO)NC(=O)CNC(=O)[C@H](N)[C@H](C)O)[C@H](C)O)C(=O)NCC(=O)N[C@@H](CCCNC(=N)N)C(=O)N[C@@H](CCCCN)C(=O)N[C@@H](CCCCN)C(=O)N[C@@H](CCCNC(=N)N)C(=O)N[C@@H](CCCNC(=N)N)C(=O)N[C@@H](CCC(N)=O)C(=O)N[C@@H](CCCNC(=N)N)C(=O)N[C@@H](CCCNC(=N)N)C(=O)N[C@@H](CCCNC(=N)N)C(=O)NCC(=O)O [DL18] (HELM PEPTIDE1{[dT].G.[dS].[dD].[dT].[dE].[dI].G.R.K.K.R.R.Q.R.R.R.G}$$$$V2.0),dynamics of cellular catabolism of the peptide (prevalence of non-metabolized m/z 2158 peak),N1E cells [1],not considerable
"OO [H2O2, hydrogen peroxide]",dead cells,N1E and R3 cells [2],84.8 ± 4.28%
CC[C@@]1(O)C(=O)OCc2c1cc1n(c2=O)Cc2cc3ccccc3nc2-1 [Camptothecin],apoptosis induction,N1E and R3 cells [3],induces apoptosis in limited number of cells
CN[C@@H]1C[C@H]2O[C@@](C)([C@@H]1OC)n1c3ccccc3c3c4c(c5c6ccccc6n2c5c31)C(=O)NC4 [Staurosporine],cell death,N1E cells [4],89.67 ± 5.04%
same,dead cells,R3 cells,15.33 ± 3.76%
